# pIC50: −log10 of the molar value. Where “and” joins values, the source holds several entries; their conditions need not be identical. Identical values can stand only once.
# Test system: 926638-142-R-J1-PDC complex spheroid viability
# Assay: Anticancer human tumor 926638-142-R-J1-PDC patient-derived endometrial carcinoma cell line growth inhibition [POLQ]
# Conditions: for viability, T/C: stronger effect = lower value; for pIC50: curve of compound
# Procedure: Multicellular complex tumor spheroid response to Polymerase (POL) inhibitors (novobiocin, ART-558, RP6685) in combination with a variety of drugs and investigational agents in selected tumor cell lines
# The POL inhibitors (novobiocin, ART-558, and RP6685) were evaluated both individually and in combination with standard of care and investigational anticancer small molecules within a complex spheroid model of solid tumors. . Complex spheroids include a stromal component modeled by human endothelial cells (HUVEC) and fibroblasts modeled by human mesenchymal stem cells (MSCs). The concentration ranges selected for each drug and investigational agent were based upon clinically achievable concentrations if the clinical Cmax of the agent was known.
# Compounds. The drugs and investigational agents: novobiocin (NSC847541), ART-558 (NSC835418), RP-6685 (NSC848927), peposertib (NSC802822), ceralasertib (NSC780249), elimusertib (NSC800525), camonsertib (NSC841442), AZD-1390 (NSC803789), olaparib (NSC753686), talazoparib (NSC767125), rucaparib (NSC756644), sotorasib (NSC818433), MRTX-1133 (NSC836407), SN-38 (NSC673596), topotecan (NSC609699), epotoside (NSC141540), doxorubicin (NSC123127), gemcitabine (NSC613327), 5-fluorouracil (NSC19893), paclitaxel (NSC125973), vemurafenib (NSC761431), MSA-2 (NSC828583), SN-011 (NSC837082), adavosertib (NSC754352), prexasertib (NSC758257), carboplatin (NSC241240) and oxaliplatin (NSC266046), were obtained from the National Cancer Institute (NCI) Developmental Therapeutics Program Chemical Repository (21). The FDA-approved anticancer drug set is available from the Developmental Therapeutics Program at https://dtp.cancer.gov/organization/dscb/obtaining/. […] The stock solutions were prepared in dimethyl sulfoxide (DMSO, Sigma-Aldrich, St. Louis, MO, cat. D2650), except for the platinum compounds which were prepared in saline (Quality Biological, Gaithersburg, MD, cat. 114-055-101), at 800-fold the tested concentration and stored at -70 degrees C prior to their use. All drugs and investigational agents were tested over a range starting from a high concentration at or near the clinical Cmax and decreasing in half-log increments. If the clinical Cmax for an agent had not been determined, the highest concentration tested was 10 microM, except for SN-38, which was tested at a high concentration of 1 microM.
# Cell Culture. All cells were maintained in an incubator at 37 degrees C and 5% CO2 with 95% humidity. The PDC lines were cultured according to standard operating procedures established by the NCI PDMR (https://pdmr.cancer.gov). Table 3 of the manuscript, lists the cell lines along with the number of the three cell types plated to form the mct-spheroids and media for tumor cell growth. After thawing, all PDC lines, except 997537-175-T-J1-PDC and 415267-285-R-J2-PDC, were cultured in Matrigel-coated flasks prepared with a working solution of 1X Ham's F-12 nutrient mix, without supplementation (Thermo Fisher Scientific, cat. 11765054), 100 U/mL penicillin-streptomycin (Thermo Fisher Scientific, cat. 15140122), and 2.5% Matrigel (Corning Inc., Corning, NY, cat. 354248) for the first three passages. The two PDC lines 997537-175-T-J1-PDC and 415267-285-R-J2-PDC were cultured on uncoated flasks. The 857933-349-R-J2-PDC line was cultured in 6C/Colon 1B media containing advanced DMEM/F-12 (Thermo Fisher Scientific, cat. 12634028), 10 mM HEPES (Thermo Fisher Scientific, cat. 15630080), 1X GlutaMAX supplement (Thermo Fisher Scientific, cat. 35050061), 0.1 mg/mL primocin (InvivoGen, San Diego, CA, cat. ant-pm-2), 10% defined fetal bovine serum, heat inactivated (HyClone Laboratories Inc., Logan, UT, cat. SH30070.03HI), 50% L-WRN conditioned media (ATCC, cat. CRL-3276), 1.25 mM N-Acetyl-L-cysteine (Sigma-Aldrich, cat. A9165), 10 mM nicotinamide (Sigma-Aldrich, cat. N0636), 1X B-27 supplement (Thermo Fisher Scientific, cat. 17504044), 1X N-2 supplement (Thermo Fisher Scientific, cat. […]
# 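Further: spheroids exposed to drugs for one week before readout.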
# 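Wherever viability, T/C is given: percent viability relative to DMSO vehicle control wells set as 100%.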
Compound,"viability, T/C (compound 0.0316 µM)","viability, T/C (compound 0.1 µM)","viability, T/C (compound 0.316 µM)","viability, T/C (compound 1 µM)","viability, T/C (compound 3.16 µM)","viability, T/C (compound 10 µM)",pIC50,"viability, T/C (compound 0.00316 µM)","viability, T/C (compound 0.01 µM)","viability, T/C (compound 0.00949 µM)","viability, T/C (compound 0.03 µM)","viability, T/C (compound 0.0949 µM)","viability, T/C (compound 0.3 µM)","viability, T/C (compound 0.949 µM)","viability, T/C (compound 3 µM)","viability, T/C (compound 0.000316 µM)","viability, T/C (compound 0.001 µM)"
C#Cc1c(F)ccc2cc(O)cc(-c3ncc4c(N5CC6CCC(C5)N6)nc(OCC56CCCN5CC(F)C6)nc4c3F)c12 (stereo unspecified),85.1% and 98.5% and 86.6%,88.2% and 90.2% and 93.3%,79.4% and 92.4% and 73.8%,78.3% and 69.2% and 77.4%,65.5% and 80.2% and 60.2%,52.5% (2×) and 67.8%,< 5.00,–,–,–,–,–,–,–,–,–,–
C=CC(=O)N1CCN(c2nc(=O)n(-c3c(C)ccnc3C(C)C)c3nc(-c4c(O)cccc4F)c(F)cc23)C(C)C1 (stereo unspecified),73.8% and 100% and 104%,88.7% and 83.5% and 89.7%,75.7% and 108% and 103%,82.7% and 84.2% and 86.3%,72.6% and 88% and 81%,58.7% and 55% and 55.7%,< 5.00,–,–,–,–,–,–,–,–,–,–
C=CCn1c(=O)c2cnc(Nc3ccc(N4CCN(C)CC4)cc3)nc2n1-c1cccc(C(C)(C)O)n1,99.2% and 71.9% and 92.3%,95.8% and 78.3% and 77%,47.6% and 50.2% and 49%,36.5% and 43.9% and 48.2%,–,–,6.53 and 6.27 and 6.52,85% and 93.8% and 95.4%,80.4% and 77.2% and 83.5%,–,–,–,–,–,–,–,–
CC(=O)O[C@H]1C(=O)[C@@]2(C)[C@H]([C@H](OC(=O)c3ccccc3)[C@]3(O)C[C@H](OC(=O)[C@H](O)[C@@H](NC(=O)c4ccccc4)c4ccccc4)C(C)=C1C3(C)C)[C@]1(OC(C)=O)CO[C@@H]1C[C@@H]2O,–,–,–,–,–,–,< 5.52,–,–,82.5% and 94% and 68.4%,63.2% and 60.2% and 77.5%,57.1% and 53.2% and 62.2%,55% and 53.9% and 68.9%,61.5% and 52.6% and 56%,44.7% and 45.7% and 57.5%,–,–
CC(C)n1c(=O)n(C)c2cnc3cc(F)c(-c4ccc(OCCCN5CCCCC5)nc4)cc3c21,98.1% and 96.9% and 85.4%,99.6% and 92.2% and 101%,78.3% and 94.7% and 126%,101% and 93.6% and 113%,89.7% and 80.9% and 94.1%,51.1% and 73.2% and 92.8%,< 5.00,–,–,–,–,–,–,–,–,–,–
CC1COCCN1c1cc(-c2ccnn2C)c2ccnc(-c3ccn[nH]3)c2n1 (stereo unspecified),83.5% and 103% and 85.4%,79.7% and 81.4% and 63.6%,55.4% and 57.6% and 51.2%,31.7% and 36.2% and 33%,13.4% and 11.8% and 14.9%,6.95% and 8.69% and 9.29%,6.36 and 6.35 and 6.54,–,–,–,–,–,–,–,–,–,–
CC1COCCN1c1cc(C2(O)CC3CCC(C2)O3)c2cnn(-c3ccn[nH]3)c2n1 (stereo unspecified),91.2% and 96.2% and 105%,64.1% and 73.2% and 58.2%,37% and 33.6% and 36.9%,12.2% and 13.1% and 15.8%,6.85% and 6.69% and 9.86%,2.36% and 3.68% and 4.18%,6.75 and 6.70 and 6.81,–,–,–,–,–,–,–,–,–,–
CC1COCCN1c1cc(C2(S(C)(=N)=O)CC2)nc(-c2ccnc3[nH]ccc23)n1 (stereo unspecified),103% and 96.2% and 125%,100% and 97.9% and 87.2%,94.2% and 87.3% and 90%,88.5% and 93.7% and 95%,64.7% and 71.3% and 62.5%,32.1% and 35.3% and 33.8%,5.27 and 5.21 and 5.26,–,–,–,–,–,–,–,–,–,–
CCCS(=O)(=O)Nc1ccc(F)c(C(=O)c2c[nH]c3ncc(-c4ccc(Cl)cc4)cc23)c1F,104% and 88.4% and 90.9%,107% and 99.6% and 92.5%,96.6% and 97% and 86%,98.3% and 106% and 94.4%,88.2% and 76.9% and 82%,50.4% and 47.4% and 51.5%,< 5.00 and 5.04,–,–,–,–,–,–,–,–,–,–
CC[C@@]1(O)C(=O)OCc2c1cc1n(c2=O)Cc2cc3c(CN(C)C)c(O)ccc3nc2-1,68.5% and 73.5% and 62%,43.1% and 49% and 41.8%,–,–,–,–,7.14 and < 7.00 and 7.20,86.8% and 84.1% and 78.3%,72.1% and 81.6% and 70.2%,–,–,–,–,–,–,92.4% and 102% and 103%,87.4% and 90.6% and 84.2%
CCc1c2c(nc3ccc(O)cc13)-c1cc3c(c(=O)n1C2)COC(=O)[C@]3(O)CC,39% and 39.6% and 38.6%,24.9% and 26.6% and 21%,10.9% and 16.3% and 8.99%,4.17% and 12.3% and 5.58%,–,–,8.00 and 8.14 and 7.90,65.4% and 62.4% and 71.3%,46.9% and 39.7% and 51.1%,–,–,–,–,–,–,–,–
CCc1cc2c(N3CCc4c(cc(Cn5ccnc5)cc4-c4cn(C)nc4C(F)(F)F)C3=O)cc(C)nc2c(OC)n1,76.6% and 76.9% and 72.4%,62.2% and 66.4% and 61.3%,52.8% and 62% and 51.8%,42% and 51.2% and 48.4%,26.5% and 38% and 43%,23.4% and 35.1% and 33.4%,6.43 and 6.01 and 6.23,–,–,–,–,–,–,–,–,–,–
CCc1cc2c(N3CCc4c(cc(Cn5ccnc5)cc4-c4cn(C)nc4C(F)(F)F)C3=O)ccnc2c(OC)n1,60.9% and 84.9% and 79%,79.4% and 67.7% and 61%,48% and 59.9% and 64.8%,43.1% and 45% and 49.4%,25.4% and 39.3% and 37.3%,27.3% and 29.5% and 28.1%,6.34 and 6.15 and 6.04,–,–,–,–,–,–,–,–,–,–
